Patent US20090297637A1

Experiments:
TNF-RE tkLuc = assay: Activation of TNF-RE tkLuc reporter (Example 2); format: cell-based, human; conditions: for effect on the repression induced by E2: TNF-RE tkLuc
Text: (§1) Plasmid Construction. […] ERβ mutants were created with QuikChange site-directed mutagenesis kits (Stratagene), by using oligonucleotides containing the mutation. The mutants were sequenced with Sequenase kits (Amersham Pharmacia) to verify the presence of the mutation.

breast cancer [1] = conditions: cited from earlier work
breast cancer [2] = conditions: among 5129 women in the treatment group, median follow-up 40 months; cited from earlier work
ERβ [3] = molecular target: T1, ERβ (Homo sapiens, UniProt Q92731); assay: ERE-tk-Luc luciferase assay in U2OS osteosarcoma cells; format: cell-based; set-up: expressed in transfected cells; host or cells: U2OS (human osteosarcoma); conditions: co-administration with the extract
T1 sequence (Q92731 whole entry): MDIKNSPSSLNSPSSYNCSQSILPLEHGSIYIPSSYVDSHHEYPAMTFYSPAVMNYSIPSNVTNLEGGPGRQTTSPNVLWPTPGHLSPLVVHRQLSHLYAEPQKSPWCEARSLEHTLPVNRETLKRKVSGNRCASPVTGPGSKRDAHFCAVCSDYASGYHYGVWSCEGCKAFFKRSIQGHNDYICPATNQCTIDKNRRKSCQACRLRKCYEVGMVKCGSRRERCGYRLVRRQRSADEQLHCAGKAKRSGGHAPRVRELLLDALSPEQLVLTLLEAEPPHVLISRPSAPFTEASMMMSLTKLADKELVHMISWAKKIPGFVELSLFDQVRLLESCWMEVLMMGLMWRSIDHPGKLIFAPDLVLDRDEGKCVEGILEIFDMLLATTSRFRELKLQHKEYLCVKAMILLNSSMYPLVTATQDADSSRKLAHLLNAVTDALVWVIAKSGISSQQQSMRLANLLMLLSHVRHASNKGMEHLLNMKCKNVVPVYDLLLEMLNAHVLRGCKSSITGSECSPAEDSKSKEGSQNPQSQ

ERβ [4] = molecular target: T1, ERβ; conditions: in the presence of ERβ
Text: as §1

ERβ [5] = molecular target: T1, ERβ; assay: Repression of TNF-α activation of TNF-RE tkLuc in U2OS cells; format: cell-based; set-up: expressed in transfected cells

## CC/C(=C(\c1ccccc1)c1ccc(OCCN(C)C)cc1)c1ccccc1 [tamoxifen]
TNF-RE tkLuc
  activation of TNF-RE tkLuc by antiestrogens: 2 fold
  effect on the repression induced by E2: abolished the repression induced by E2
Breast cancer [1]; BCPT, women at high risk for breast cancer
  reduction of the risk of primary invasive breast cancer: 49%
Breast cancer [1]; five years of therapy, ER-positive breast cancer
  reduction of the risk of recurrences: 42%
Breast cancer [1]; five years of therapy
  reduction of mortality from breast cancer: 22%

## O=C(c1ccc(OCCN2CCCCC2)cc1)c1c(-c2ccc(O)cc2)sc2cc(O)ccc12 [raloxifene]
TNF-RE tkLuc
  activation of TNF-RE tkLuc by antiestrogens: 2 fold
  effect on the repression induced by E2: abolished the repression induced by E2
Breast cancer [2]
  cases of breast cancer: 13 cases
ERβ [3]; FIG. 5
  effect of anti-estrogen on extract-stimulated ERE-tk-Luc expression: counteracted
ERβ [3]; FIG. 5, listed as Raloxifene
  effect of anti-estrogen on extract-stimulated ERE-tk-Luc expression: attenuated

## TNF-α
TNF-RE tkLuc; TNF-α as stimulus
  activation of 3 copies of the TNF-RE (−125 to −82) upstream of the tk promoter: 5-10 fold

## C[C@]12CC[C@@H]3c4ccc(O)cc4C[C@@H](CCCCCCCCC[S+]([O-])CCCC(F)(F)C(F)(F)F)[C@H]3[C@@H]1CC[C@@H]2O (some centres unmarked) [ICI 182780]
TNF-RE tkLuc
  activation of TNF-RE tkLuc by antiestrogens: 2 fold
  effect on the repression induced by E2: abolished the repression induced by E2
ERβ [3]; FIG. 5
  effect of anti-estrogen on extract-stimulated ERE-tk-Luc expression: counteracted
ERβ [3]; FIG. 5, listed as ICI
  effect of anti-estrogen on extract-stimulated ERE-tk-Luc expression: attenuated

## C[C@]12CC[C@@H]3c4ccc(O)cc4CC[C@H]3[C@@H]1CC[C@@H]2O [Herb E2, estradiol]
ERβ [4]
  repression of TNF-α activation of TNF-RE tkLuc: 60-80%
ERβ [5]
  repression of TNF-α activation of TNF-RE: 100%
